From US12098416B2, “Assessment of biological contamination and biological contamination treatment” (Halliburton Energy Services, Inc., priority 2019, dated 2024)

Tests used:
[1] = system: SRB (sulfate reducing bacteria); assay: Biocide efficacy study on high TDS (10%) fluid sample, Rapid SRB Detection Pouches (thin-film culture device); assay type: cell-based; conditions: 4-hour biocide contact
Procedure: A biocide efficacy study on a high TDS (10%) fluid sample using a thin-film culture device was evaluated and compared to the traditional bug-bottle approach. The high TDS fluid sample was inoculated with mature SRB. Seventy-two 3 mL doses of the fluid sample were then introduced into 72 respective Rapid SRB Detection Pouches.
(§1) The fluid samples were then incubated at a temperature of 32° C. After approximately 24 hours of inoculation, the SRB count was measured using the incubation and referencing procedure of Example 1. The bug bottle numbers were determined by counting the number of bottles in a serial dilution which had formed a visible black precipitate.

[2] = system: SRB (sulfate reducing bacteria); assay: Biocide efficacy study on low TDS (1%) fluid sample, Rapid SRB Detection Pouches (thin-film culture device); assay type: cell-based; conditions: for reduction in SRB count: 24-hour biocide contact
Procedure: In this example, an assessment of biological contamination was performed using culture devices including indicator reagents. More specifically, SRB enumeration in various water samples including SRB was performed using thin-film culture devices (“pouches”). Three milliliters of two samples, Sample A and Sample B, were introduced into separate Rapid SRB Detection Pouches (manufactured by 3M™). The pouches were sealed and incubated at 32° C. The pouches were incubated upright to allow the precipitate to settle toward the bottom of pouch. The SRB count of each sample was measured at multiple time intervals using a visual technique where the color of the samples was compared to reference colors as shown in FIGS. 2A and 2B. The degree of blackening of the sample at certain time points compared to the reference is indicative of SRB count.
A biocide efficacy study on a low TDS (1%) fluid sample using a thin-film culture device was evaluated and compared to the traditional bug-bottle approach. The low TDS fluid sample was inoculated with mature SRB. Seventy-two 3 mL doses of the fluid sample were then introduced into 72 Rapid SRB Detection Pouches. […] The dosages were based on the standard US Environmental Protection Agency (EPA) recommendations for each respective biocide:
as §1

[3] = dose level not clearly singled out

| Compound | reduction in SRB count in comparison to the control ([1]; low dose (THPS Low 25 ppm)) | reduction in SRB count in comparison to the control ([2]; 4-hour biocide contact, low dose (THPS Low 25 ppm)) | reduction in SRB count ([2]; low dose (THPS Low 25 ppm)) | reduction in SRB count in comparison to the control [1, 3] | reduction in SRB count [2, 3] |
| --- | --- | --- | --- | --- | --- |
| tetrakis(hydroxymethyl)phosphonium sulfate [THPS] | all but the Quat and THPS low dose biocide groups demonstrated a reduction in SRB count | all but the THPS Low biocide group demonstrated a reduction in SRB count | all but the didecyldimethyl ammonium chloride and THPS low dose biocide groups demonstrated a reduction in SRB count | – | – |
| CCCCCCCCCC[N+](C)(C)CCCCCCCCCC.[Cl-] [Quat, didecyldimethyl ammonium chloride] | – | – | – | all but the Quat and THPS low dose biocide groups demonstrated a reduction in SRB count | all but the didecyldimethyl ammonium chloride and THPS low dose biocide groups demonstrated a reduction in SRB count |
